Results from a melting point compilation (Tetko et al.; mined from patent text by program, amines drawn as free bases though some values may be those of a salt).

Compound	melting point
CC(C)(C)CC(C)(C)c1cc(-n2nc3ccc(Sc4ccccc4)cc3n2)c(O)c(C(C)(C)c2ccccc2)c1	124 to 125 °C
O=C(NC(=Cc1ccccc1)c1ccccc1)C(F)(F)F	148 to 150 °C
Cc1nc(Cl)c([N+](=O)[O-])c(NC(C)C)n1	77 to 79 °C
CC(C)OP(=O)(OCN1C(=O)c2c(C(C)C)cc(OCC(=O)O)cc2S1(=O)=O)OC(C)C	118 to 125 °C
Nc1nc(-n2cc(C(=O)O)c(=O)c3cc(F)c(F)c(Br)c32)c(F)cc1F	272 to 278 °C
CNC(=O)Oc1cc(C)c(NC(=O)C(F)(F)Cl)c(C)c1	163 to 165 °C
CC(CCCCCCC(=O)O)C1CCC2C3CCC4CC(O)CCC4(C)C3CC(O)C12C (configuration not stated)	182 to 185 °C
Cc1nc(-c2ccc(C(F)(F)F)cc2)oc1COc1ccc(OCc2nn[nH]n2)cc1	156 °C
COC(=O)[C@H]1O[C@@H](n2cnc3c(Cl)ncnc32)[C@H](OC(C)=O)[C@@H]1N=[N+]=[N-]	94 to 96 °C
CCCCCCCCCCCCOc1cccc2c(OCCCCCCCCCCCC)cccc12	92 to 93 °C
CC(=O)Nc1ccc(S(=O)(=O)N2CCN(C)CC2)cc1	184 °C
CCOC(=O)c1cc(CN)c[nH]1	78 to 79 °C
Oc1ccc(C2(c3ccc(O)cc3)c3ccccc3C(c3ccc(O)cc3)(c3ccc(O)cc3)c3ccccc32)cc1	208 to 209 °C
CCCCCCCCCCCCN1C(=O)C=CC1=O	56 °C
COc1ccc(C2(C3CCCCC3=O)CCC(=O)CC2)c2c1OCCO2 (configuration not stated)	268 to 269 °C

Second part, the compound after the results:

melting point	Compound
148 to 150 °C	COC(=O)c1c(Cl)cc(Cl)cc1NC(=O)CSc1ccc(NC(=S)Nc2cccc(Cl)c2)cc1
230 to 238 °C	CCOC(=O)c1nc(-c2ccc(=O)[nH]c2)c(-c2ccccc2)nc1N
231 °C	CC1(C)Oc2ccc([N+](=O)[O-])cc2C(n2ccccc2=O)=C1CN
73 to 75 °C	C(=Cc1ccc(-c2cnc(CSCCOc3ccccc3)o2)cc1)CN1CCCC1
161 °C	CCOC(=O)c1cc2sc(C)c(N(C)S(=O)(=O)c3cccs3)c2[nH]1
49 to 52 °C	CC(=S)OC(c1ccccc1)C1(C)OCCO1 (configuration not stated)
179 to 180 °C	COc1ccn2nc(-c3ccccc3)c(-c3ccc(=O)n(C4CCCN(C)C4)n3)c2c1 (configuration not stated)
67 to 70 °C	CC1(COc2cccc(Br)c2)COC(C)(C)OC1
62.8 °C	CC(C)Oc1ccc(F)c(N2C(=O)C3=C(CCCC3)C2=O)c1
82 to 82.5 °C	CN1CCN(c2cccc3ccc(OC(=O)c4ccccc4)cc23)CC1
251 to 257 °C	COCCn1c2cc(OCCCO)c(OC)cc2c2c3c(c(-c4ccccc4Cl)cc21)C(=O)NC3=O
130 °C	O=C(Nc1ccccc1Cl)Oc1ccc2c(c1)CCCN2Cc1ccccc1
257 to 260 °C	CC(C)C(C)Nc1c(NCc2ccc(C#N)cc2)c(=O)c1=O (configuration not stated)
198 to 200 °C	CC(=O)Nc1ccc(-c2cccc(C3=NC(C)(C)Cc4ccc5c(c43)CC(C)(C)O5)c2)cc1
174 °C	COc1cccc(NC(=O)NCC(=O)N2[C@@H](C(=O)OC(C)(C)C)CC[C@H]2c2ccccc2)c1 (racemic)
131 to 138 °C	O=C(/C=C/c1ccc(O)cc1)CC(=O)/C=C/c1ccc(O)cc1Cl
188 °C	CN1C(C(=O)NC2CCC(O)CC2)C(c2cccc(Cl)c2F)C2(C(=O)Nc3cc(Cl)ccc32)C1CC(C)(C)C (configuration not stated)
> 300 °C	COc1cc(OC)c2c(=O)[nH]c(-c3ccc(OCCO)c(-c4ccc(S(C)(=O)=O)cc4)n3)nc2c1
158 to 159 °C	O=[N+]([O-])c1ccccc1/C=C/c1ccc(Cl)cc1[N+](=O)[O-]
226 to 228 °C	Cc1ccc(OC2CCN(C(=O)C(=O)Nc3ccc4c(c3)OCC(=O)N4)CC2)cc1
279 to 283 °C	O=C(CCNc1c(C(=O)O)[nH]c2cc(Cl)cc(Cl)c12)c1ccc(Cl)cc1
170 to 171 °C	CCCCc1nnc(-c2ccco2)n1Cc1ccc(NC(=O)c2ccccc2C(=O)O)cc1
